Several values for one entry are separate records, joined by “and”; a condition that tells them apart may be missing. Equal values may be shown once. Read-outs that look alike come from different tables or passages of the source.
How the values were obtained:
[1] = test system: human coronavirus (HCoV) 229E; assay: microbe, parasite or virus in culture; assay type: cell-based, human coronavirus 229E; conditions: MRCS cells, HCoV 229E, 3 days, CellTiter Glo, read-out: 229E CPE EC50
Description: Test compounds were provided by the sponsor. Reference compound remdesivir was provided by WuXi AppTec. Compounds were assayed at 8 concentrations (to be defined by sponsor), in duplicate wells.
MRCS cells were obtained from the ATCC, and maintained in the Minimum Essential Medium supplemented with 10% FBS, 1% L-glutamine, 1% NEAA and 1% penicillin-streptomycin. Minimum Essential Medium supplemented with 5% FBS, 1% L-glutamine, 1% NEAA and 1% penicillin-streptomycin was used as the assay medium.
Cells were seeded in 96 well plates, in 100 μl per well of assay medium, and cultured at 37° C. and 5% CO2 overnight. Next day, test compound was diluted with assay medium and then added into the cells, 50 μl per well. Then 50 μl per well of assay medium diluted virus was added. The final volume of the cell culture was 200 μl per well. […] The CPE were measured by CellTiter Glo following the manufacturer's manual. The antiviral activity of compounds was calculated based on the protection of the virus-induced CPE at each concentration normalized by the virus control.
EC50 and CC50 values were calculated using the GraphPad Prism software using the nonlinear regression model of log(inhibitor) vs. response—Variable slope (four parameters).

SARS-CoV-2 replicon = assay: microbe, parasite or virus in culture; assay type: cell-based; conditions: read-out: Replicon EC50
[2] = unidentified human coronavirus, 72 h
[3] = Severe acute respiratory syndrome coronavirus 2, Huh-7, 24 h

SMILES	EC50 [1] [nM]	EC50 [1, 2] [nM]	EC50 (SARS-CoV-2 replicon; [3]) [nM]	EC50 (SARS-CoV-2 replicon)
CC(C)(C)[C@H](NS(=O)(=O)c1ccc(F)cc1)C(=O)N1C[C@H]2[C@@H]([C@H]1C(=O)N[C@H](C#N)C[C@@H]1CCNC1=O)C2(C)C [Compound 53, (1R,2S,5S)—N—((S)-1-cyano-2-((S)-2-oxopyrrolidin-3-yl)ethyl)-3-((S)-2-((4-fluorophenyl)sulfonamido)-3,3-dimethylbutanoyl)-6,6-dimethyl-3-azabicyclo[3.1.0]hexane-2-carboxamide]	364	265	51	100 nM
CC(C)(C)[C@H](NS(=O)(=O)c1ccc(Cl)s1)C(=O)N1C[C@H]2[C@@H]([C@H]1C(=O)N[C@H](C#N)C[C@@H]1CCNC1=O)C2(C)C [Compound 54]	127	106	54	58 nM
CC(C)(C)[C@H](NC(=S)NC1CCCC1)C(=O)N1C[C@H]2[C@@H]([C@H]1C(=O)N[C@H](C#N)C[C@@H]1CCNC1=O)C2(C)C [Compound 70]		4990	1790	
CC(C)NC(=S)N[C@H](C(=O)N1C[C@H]2[C@@H]([C@H]1C(=O)N[C@H](C#N)C[C@@H]1CCNC1=O)C2(C)C)C(C)(C)C [Compound 73]		1320	140	
CC(C)(C)[C@H](NC(=S)Nc1ccccc1)C(=O)N1C[C@H]2[C@@H]([C@H]1C(=O)N[C@H](C#N)C[C@@H]1CCNC1=O)C2(C)C [Compound 74]		11500	490	
CC(C)(C)[C@H](NC(=O)C(F)(Cl)C(F)(F)F)C(=O)N1C[C@H]2[C@@H]([C@H]1C(=O)N[C@H](C#N)C[C@@H]1CCNC1=O)C2(C)C (stereo partly drawn) [Compound 75]	118	92	6.9	13 nM
CC(C)(C)[C@H](NC(=S)NC1CC1)C(=O)N1C[C@H]2[C@@H]([C@H]1C(=O)N[C@H](C#N)C[C@@H]1CCNC1=O)C2(C)C [Compound 76]	7550	6320	380	480 nM
CN(C)C(=S)N[C@H](C(=O)N1C[C@H]2[C@@H]([C@H]1C(=O)N[C@H](C#N)C[C@@H]1CCNC1=O)C2(C)C)C(C)(C)C [Compound 77]		21100	4120	
CNC(=S)N[C@@H](CC1CCC1)C(=O)N1C[C@H]2[C@@H]([C@H]1C(=O)N[C@H](C#N)C[C@@H]1CCNC1=O)C2(C)C [Compound 78]		12600	1860	
CC(C)(C)[C@H](NS(=O)(=O)c1cccc(F)c1)C(=O)N1C[C@H]2[C@@H]([C@H]1C(=O)N[C@H](C#N)C[C@@H]1CCNC1=O)C2(C)C [Compound 79]	266	256	81	140 nM
CC(C)(C)[C@H](NC(=O)C(F)(F)C(F)(F)Cl)C(=O)N1C[C@H]2[C@@H]([C@H]1C(=O)N[C@H](C#N)C[C@@H]1CCNC1=O)C2(C)C [Compound 80]	116	92	6.5	13 nM
CC(C)(C)[C@H](NC(=O)C12CC(C(F)(F)F)(C1)C2)C(=O)N1C[C@H]2[C@@H]([C@H]1C(=O)N[C@H](C#N)C[C@@H]1CCNC1=O)C2(C)C [Compound 81]		6860	1990	
CC(C)(C)[C@H](NS(=O)(=O)c1ccc2c(c1)CCO2)C(=O)N1C[C@H]2[C@@H]([C@H]1C(=O)N[C@H](C#N)C[C@@H]1CCNC1=O)C2(C)C [Compound 83]	1060	838	44	72 nM
C=CS(=O)(=O)N[C@H](C(=O)N1C[C@H]2[C@@H]([C@H]1C(=O)N[C@H](C#N)C[C@@H]1CCNC1=O)C2(C)C)C(C)(C)C [Compound 84]		910	290	
CC(C)(C)[C@H](NS(=O)(=O)C[C@@]12CC[C@@H](CC1=O)C2(C)C)C(=O)N1C[C@H]2[C@@H]([C@H]1C(=O)N[C@H](C#N)C[C@@H]1CCNC1=O)C2(C)C [Compound 86]		9630	4020	
CC(C)(C)NC(=O)N[C@H](C(=O)N1C[C@H]2[C@@H]([C@H]1C(=O)N[C@H](C#N)C[C@@H]1CCNC1=O)C2(C)C)C(C)(C)C [Compound 87]	14000	9070	450	800 nM
CC(C#N)C(=O)N[C@H](C(=O)N1C[C@H]2[C@@H]([C@H]1C(=O)N[C@H](C#N)C[C@@H]1CCNC1=O)C2(C)C)C(C)(C)C (stereo partly drawn) [Compound 88]	4560	2500	190	250 nM
CC(C)(C)[C@H](NS(=O)(=O)c1ccc(OC(F)(F)F)cc1)C(=O)N1C[C@H]2[C@@H]([C@H]1C(=O)N[C@H](C#N)C[C@@H]1CCNC1=O)C2(C)C [Compound 89]	468	322	140	160 nM
CC(C)(C)[C@H](NS(=O)(=O)c1ccc(C(F)(F)F)cc1)C(=O)N1C[C@H]2[C@@H]([C@H]1C(=O)N[C@H](C#N)C[C@@H]1CCNC1=O)C2(C)C [Compound 90]	387	254		67 nM and 76 nM
CC1(C)[C@@H]2[C@@H](C(=O)N[C@H](C#N)C[C@@H]3CCNC3=O)N(C(=O)[C@@H](NC(=O)C(F)(F)F)C34CC(C(F)(F)F)(C3)C4)C[C@@H]21 [Compound 91]		10900	330	
C=C(C(=O)N[C@H](C(=O)N1C[C@H]2[C@@H]([C@H]1C(=O)N[C@H](C#N)C[C@@H]1CCNC1=O)C2(C)C)C(C)(C)C)C(F)(F)F [Compound 92]		17100	1760	
CC(C)(C)[C@H](NC(=O)c1ccc(F)cc1)C(=O)N1C[C@H]2[C@@H]([C@H]1C(=O)N[C@H](C#N)C[C@@H]1CCNC1=O)C2(C)C [Compound 94]		4290	960	
CC(C)(C)[C@H](NS(=O)(=O)c1ccccc1)C(=O)N1C[C@H]2[C@@H]([C@H]1C(=O)N[C@H](C#N)C[C@@H]1CCNC1=O)C2(C)C [Compound 95]	521	358	37	68 nM
COC(=O)NS(=O)(=O)N[C@H](C(=O)N1C[C@H]2[C@@H]([C@H]1C(=O)N[C@H](C#N)C[C@@H]1CCNC1=O)C2(C)C)C(C)(C)C [Compound 97]		> 30000	> 10000	
CC(C)(C)[C@H](NS(=O)(=O)C[C@]12CC[C@H](CC1=O)C2(C)C)C(=O)N1C[C@H]2[C@@H]([C@H]1C(=O)N[C@H](C#N)C[C@@H]1CCNC1=O)C2(C)C [Compound 98]		3310	3650	
CC(C)(C)[C@H](NS(=O)(=O)c1ccc(F)c(F)c1)C(=O)N1C[C@H]2[C@@H]([C@H]1C(=O)N[C@H](C#N)C[C@@H]1CCNC1=O)C2(C)C [Compound 99]	344	271	88	100 nM
COc1ccc(S(=O)(=O)N[C@H](C(=O)N2C[C@H]3[C@@H]([C@H]2C(=O)N[C@H](C#N)C[C@@H]2CCNC2=O)C3(C)C)C(C)(C)C)cc1 [Compound 101]	910	514	24	41 nM
